Measurements taken from US20210206763A1, “Anti-Proliferative Agents” (FEMTOGENIX LIMITED, priority 2015, published 2021).

What was measured:
Assay type in all cases: cell-based
BxPC3 (Pancreas) = assay: In vitro cytotoxicity of 41, cancer cell-line panel; details: Homo sapiens, BXPC-3; 72 hour incubation
Procedure: (§1) Tumor cell lines were maintained in RPMI1640 medium supplemented with 10% heat-inactivated fetal bovine serum, 2 mM L-glutamine and 1 mM sodium pyruvate. 1800 cells per well were seeded in a volume of 180 μl in a 96-well flat bottom polystyrene plate. The cells were allowed to adhere overnight at 37° C. in a CO2 incubator. Ligands were initially formulated in DMSO, and stocks stored at −80° C. They were then further formulated at lox concentration in RPMI1640 medium. 20 ul of diluted samples were added into each treatment well. On each plate, blank wells with no cells, and untreated wells containing cells, were included. Plates were then cultured at 37° C. in a CO2 incubator for 72 hrs. Cytotoxicity was evaluated using a tetrazolium salt-based assay, the MIT assay. After 72 hours, the supernatant was removed from each well and 200 μl of a sterile filtered 500 μg/ml MTT solution in water added to each well. The plates were then incubated at 37° C. in a CO2 incubator for 4 hrs. The supernatant was then removed and the formazan crystals formed solubilized by adding 15(411 of DMSO to each well. The plate was then read on a plate reader at 540 nm, and percentage cell survival calculated as follows: ((mean absorbance treated wells at concentration x−mean absorbance blank wells)÷(mean absorbance untreated wells at concentration x−mean absorbance blank wells))×100. Data were plotted as concentration in nM vs. % cell survival in Microsoft Excel, and IC50 values (concentration where cell survival is reduced by a half) were determined from the graph.

A549 (Lung) = assay: as above; details: Homo sapiens, 72 hour incubation
Procedure: as §1

[1] = tested on: EC Cancer Stem Cell (Cancer stem cells); assay: as above; details: 72 hour incubation
Procedure: as §1

SK-HEP-1 (Liver) = assay: as above; details: Homo sapiens, SK-HEP1; 72 hour incubation
Procedure: as §1

SW480 (Colorectal) = assay: as above; details: Homo sapiens, 72 hour incubation
Procedure: as §1

A375 (Skin) = assay: as above; details: Homo sapiens, A-375; 72 hour incubation
Procedure: as §1

HL60 (APML) = assay: as above; details: Homo sapiens, HL-60; 72 hour incubation
Procedure: as §1

Calu-3 (Lung) = assay: as above; details: Homo sapiens, 72 hour incubation
Procedure: as §1

PC3 (Prostate) = assay: as above; details: 72 hour incubation
Procedure: as §1

LnCap (Prostate) = assay: as above; details: Homo sapiens, 72 hour incubation
Procedure: as §1

SK-MEL-5 (Melanoma) = assay: as above; details: Homo sapiens, 72 hour incubation
Procedure: as §1

AML2 (AML) = assay: as above; details: 72 hour incubation
Procedure: as §1

AGS (Gastric) = assay: as above; details: 72 hour incubation
Procedure: as §1

786-O (Renal Cell, CD70) = assay: as above; details: Homo sapiens, 786-0; 72 hour incubation
Procedure: as §1

SK-BR-3 (HER2+++) = assay: In vitro cytotoxicity of ADCs; details: Homo sapiens, 72 hour incubation
Procedure: (§2) The resulting ADCs were evaluated in vitro against relevant antigen positive cell-lines.

[2] = tested on: ZR75-1 (HER2++) (Trastuzumab resistant); assay: In vitro cytotoxicity of ADCs; details: Homo sapiens, ZR-75-1; 72 hour incubation
Procedure: as §2

MCF-7 (HER2−) = assay: In vitro cytotoxicity of ADCs; details: Homo sapiens, MCF7; 72 hour incubation
Procedure: as §2

SMILES | IC50 (BxPC3 (Pancreas)) [nM] | IC50 (A549 (Lung)) [nM] | IC50 [1] [nM] | IC50 (SK-HEP-1 (Liver)) [nM] | IC50 (SW480 (Colorectal)) [nM] | IC50 (A375 (Skin)) [nM] | IC50 (HL60 (APML)) [nM] | IC50 (Calu-3 (Lung)) [nM] | IC50 (PC3 (Prostate)) [nM] | IC50 (LnCap (Prostate)) [nM] | IC50 (SK-MEL-5 (Melanoma)) [nM] | IC50 (AML2 (AML)) [nM] | IC50 (AGS (Gastric)) [nM] | IC50 (786-O (Renal Cell, CD70)) [nM] | IC50 (SK-BR-3 (HER2+++)) [nM] | IC50 [2] [nM] | IC50 (MCF-7 (HER2−)) [nM]
COc1cc2c(cc1OCCCC(=O)Nc1cc(C(=O)Nc3ccc(-c4cc(C(=O)Nc5ccc(N)cc5)n(C)c4)cc3)n(C)c1)N=C[C@@H]1CCCCN1C2=O [Compound 41] | 0.43 | 0.18 | 2.64 | 0.32 | 0.29 | 0.28 | 0.009 | 0.65 | 0.36 | 0.47 | 0.39 | 0.016 | 0.07 | 0.53 | – | – | –
COc1cc2c(cc1OCCCC(=O)Nc1cc(C(=O)Nc3ccc(-c4cc(C(=O)Nc5ccc(N)cc5)n(C)c4)cc3)n(C)c1)N=C[C@@H]1CCCCN1C2=O [Compound 41, (S)—N-(4-aminophenyl)-4-(4-(4-(4-((2-methoxy-12-oxo-6a,7,8,9,10,12-hexahydrobenzo[e]pyrido[1,2-a][1,4]diazepin-3-yl)oxy)butanamido)-1-methyl-1H-pyrrole-2-carboxamido)phenyl)-1-methyl-1H-pyrrole-2-carboxamide] | – | – | – | – | – | – | – | – | – | – | – | – | – | – | 0.086 | 0.63 | 0.289
